These results are taken from patent publication US9045524B2, “Selective caspase inhibitors and uses thereof” (NOVAGENESIS FOUNDATION, priority 2009, dated 2015).

One may read the IC50 as the concentration that inhibits the measured activity by half. One may read the inhibition as the share of the control response that was lost under treatment.

For one test, the target named is Caspase-1 (Homo sapiens (Human), UniProt P29466). Put plainly: Caspase-1 Inhibitor Drug Screening Kit, fluorometric (AFC liberation). Format: biochemical. The note with it: for IC50: 30-minute incubation at 37° C., approximations of the average values, read-out: Caspase enzymatic activity, IC50 (uM) Caspase 1.
Sequence of Caspase-1 (P29466 120-404): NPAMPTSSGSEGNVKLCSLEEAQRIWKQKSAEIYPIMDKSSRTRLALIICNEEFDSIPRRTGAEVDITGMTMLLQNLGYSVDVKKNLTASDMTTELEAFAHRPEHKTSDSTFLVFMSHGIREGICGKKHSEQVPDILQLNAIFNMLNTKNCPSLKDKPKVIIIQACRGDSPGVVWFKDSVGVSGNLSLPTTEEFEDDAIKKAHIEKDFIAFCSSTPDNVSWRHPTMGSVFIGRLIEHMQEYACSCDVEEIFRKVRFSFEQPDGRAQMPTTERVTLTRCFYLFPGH
Another test has as its target Caspase-3 (Homo sapiens (Human), UniProt P42574). Put plainly: Caspase-3 Inhibitor Drug Screening Kit, fluorometric (AFC liberation). Format: biochemical.
Another test deals with Caspase-5 (Homo sapiens (Human), UniProt P51878). In words: Caspase-5 Inhibitor Drug Screening Kit, fluorometric (AFC liberation). The format is biochemical. Particulars: for IC50: 30-minute incubation at 37° C., approximations of the average values, read-out: Caspase enzymatic activity, IC50 (uM) Caspase 5.
Sequence of Caspase-5 (P51878 137-434): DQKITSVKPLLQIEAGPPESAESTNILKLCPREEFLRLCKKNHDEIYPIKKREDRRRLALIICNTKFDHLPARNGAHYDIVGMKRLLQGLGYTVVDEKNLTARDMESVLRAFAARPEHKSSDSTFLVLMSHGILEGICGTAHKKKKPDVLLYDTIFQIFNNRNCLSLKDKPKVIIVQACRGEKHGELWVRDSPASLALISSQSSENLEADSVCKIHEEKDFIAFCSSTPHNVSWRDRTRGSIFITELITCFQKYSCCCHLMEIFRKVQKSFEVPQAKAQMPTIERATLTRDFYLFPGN
The target in a further test is Caspase-7 (Homo sapiens (Human), UniProt P55210). In words: Caspase-7 Inhibitor Drug Screening Kit, fluorometric (AFC liberation). The format is biochemical. Particulars: 30-minute incubation at 37° C.; approximations of the average values; read-out: Caspase enzymatic activity, IC50 (uM) Caspase 7.
Sequence of Caspase-7 (P55210 whole entry): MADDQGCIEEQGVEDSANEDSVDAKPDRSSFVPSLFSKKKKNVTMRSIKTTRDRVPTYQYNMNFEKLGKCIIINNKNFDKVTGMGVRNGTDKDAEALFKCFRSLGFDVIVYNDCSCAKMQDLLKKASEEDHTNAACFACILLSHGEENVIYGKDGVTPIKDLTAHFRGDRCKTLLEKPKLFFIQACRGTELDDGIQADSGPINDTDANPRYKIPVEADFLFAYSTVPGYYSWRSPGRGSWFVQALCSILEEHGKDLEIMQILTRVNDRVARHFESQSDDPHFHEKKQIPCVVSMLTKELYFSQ
Another test addresses Caspase-9 (Homo sapiens (Human), UniProt P55211). In words: Caspase-9 Inhibitor Drug Screening Kit, fluorometric (AFC liberation). Format: biochemical. The note with it: for IC50: 30-minute incubation at 37° C., approximations of the average values, read-out: Caspase enzymatic activity, IC50 (uM) Caspase 9.
The subject of test [1] is proteolytic cleavage of PARP (poly ADP-ribose polymerase) in Hela cells. In words: Inhibition of staurosporine-induced PARP cleavage in live Hela cells. The format is cell-based. The note with it: for inhibition at 50 µM: Homo sapiens, HeLa; for effectivity in inhibiting PARP cleavage: staurosporine. How it is done: To test the efficacy of caspase-3 inhibitors at the cellular level, the ability of selected compounds to inhibit the proteolytic cleavage of PARP (poly ADP-ribose polymerase) was evaluated in live Hela cells.
Briefly, in this assay Hela cells are seeded in 96 well plates and incubated for 4 hours with staurosporine, a well characterized inducer of apoptosis, alone or together with different concentrations of compound (50, 25, 10 and 3 uM). After formaldehyde-based fixation, the cells are stained with a fluorescein-labeled anti-cleaved PARP antibody (Cell signaling, Cat#: 9547) and counterstained with Hoechst33342 (Invitrogen, Cat#: H3570) to mark all nuclei. Fluorescence images are taken on a Cellomics™ microscope system (Thermo Scientific, Pittsburgh, USA) with the Hoechst stain in the blue channel and the cleaved PARP antibody stain in the green channel. The percentage of cleaved PARP positive cells is determined by calculating the ratio between nuclei with a cleaved PARP antibody staining above a certain threshold and all (Hoechst positive) nuclei. The efficacy of caspase-3 inhibition is determined by calculating the ratio between cleaved PARP positive cells after staurosporine incubation together with compounds and staurosporine incubation without compounds.

The subject of the next test is Glo3/7. In words: Glo3/7 assay. The format is biochemical.
Where [2] appears, read: 30-minute incubation at 37° C., approximations of the average values, read-out: Caspase enzymatic activity, IC50 (uM) Caspase 3.
[3] abbreviates: 4 h, read-out: % inhibition of PARP cleavage at 50 uM compound, Hela cells, staurosporine 4 hours, 50 uM compound.
Where [4] appears, read: Hela cells, 50 uM, read-out: % of inhibition with compound relative to DEVDFMK.
[5] abbreviates: at the tested dose-range (1 to 3333 nM).

Structures can show the parent of a compound that is named as a salt. Where two headings read alike, the source gives them in different places. Square brackets hold non-standard residues; d marks the D form. Peptide text beside a SMILES is read from it. * marks the point of attachment. Phg = N[C@H](C(=O)O)c1ccccc1; Cbz = O=C(OCc1ccccc1)*; OtBu = CC(C)(C)O*

Sequence of Caspase-3 (P42574 29-277): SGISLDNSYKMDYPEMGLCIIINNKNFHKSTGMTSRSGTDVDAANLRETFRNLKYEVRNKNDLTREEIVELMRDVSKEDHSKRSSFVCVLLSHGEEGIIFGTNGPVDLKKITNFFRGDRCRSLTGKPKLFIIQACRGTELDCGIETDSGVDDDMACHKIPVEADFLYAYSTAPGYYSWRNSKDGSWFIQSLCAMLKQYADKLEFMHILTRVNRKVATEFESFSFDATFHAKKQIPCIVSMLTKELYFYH
Sequence of Caspase-9 (P55211 whole entry): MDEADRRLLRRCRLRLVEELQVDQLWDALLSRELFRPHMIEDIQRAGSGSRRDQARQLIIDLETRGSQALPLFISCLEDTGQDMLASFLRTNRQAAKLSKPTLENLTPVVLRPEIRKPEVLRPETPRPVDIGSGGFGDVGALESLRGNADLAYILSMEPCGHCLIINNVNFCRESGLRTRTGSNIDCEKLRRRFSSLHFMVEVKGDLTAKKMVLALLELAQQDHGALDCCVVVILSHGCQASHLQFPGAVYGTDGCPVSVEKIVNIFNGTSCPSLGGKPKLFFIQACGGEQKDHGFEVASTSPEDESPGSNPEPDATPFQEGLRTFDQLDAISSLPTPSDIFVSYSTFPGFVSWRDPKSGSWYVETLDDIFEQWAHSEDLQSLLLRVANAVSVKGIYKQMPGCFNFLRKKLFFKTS
Experimental for Caspase-1: (§1) The level of inhibition of caspase-1, -3, -5, -7, -9 activity was determined by comparison of the relative fluorescence intensity in samples with or without the compound.
Experimental for Caspase-3: as §1
Experimental for Caspase-5: as §1
Experimental for Caspase-7: as §1
Experimental for Caspase-9: as §1

On to `CC(C)[C@H](NC(=O)[C@@H](NC(=O)[C@H](CC(=O)OC(C)(C)C)NC(=O)OCc1ccccc1)c1ccccc1)C(=O)O` [Compound 16, Z-Asp(β-tert-butyl)-Phg-Val-OH] (Cbz-Asp(OtBu)-[Phg]-Val-OH), for which the 50% inhibitory concentration (IC50) was over 3.33 µM at Caspase-1; over 2 µM at Caspase-3 (setting [2]); over 3.33 µM on Caspase-5; over 3.33 µM at Caspase-7; over 3.33 µM on Caspase-9; over 50 µM in the test with Glo3/7. Besides, on Caspase-3, the “activity against caspase-3” value is reported as “devoid of any activity”. Also, the inhibition at 50 µM in test [1] (setting [3]) worked out at 13%; in test [1] (setting [4]), 23%.
Take `CC(C)(C)OC(=O)C[C@H](N)/C=C/S(C)(=O)=O.Cc1ccc(S(=O)(=O)O)cc1` [Compound 33, Asp(β-tert-butyl)methyl Vinyl Sulfone Tosyl Salt]: the IC50 at Caspase-1 is over 3.33 µM; on Caspase-3 (setting [2]), over 10 µM; on Caspase-5, over 3.33 µM; on Caspase-7 it was over 3.33 µM; on Caspase-9, over 3.33 µM; with Glo3/7, over 50 µM. The “activity against caspase-3” value at Caspase-3 is listed as “devoid of any activity”. The figures for the inhibition at 50 µM in test [1] (setting [3]) and in test [1] (setting [4]) were 30% and 50%, respectively.
For the compound `CC(C)(C)OC(=O)C[C@H](N)/C=C/S(=O)(=O)c1ccccc1` [Compound 37, Asp-vinyl Phenyl Sulfone Salt Form], the half-maximal inhibitory concentration (IC50) is over 3.33 µM on Caspase-1; over 2 µM at Caspase-3 (setting [2]); over 3.33 µM on Caspase-5; over 3.33 µM at Caspase-7; over 3.33 µM on Caspase-9; over 50 µM in the test on Glo3/7. For the same compound, the figures for the inhibition at 50 µM in test [1] (setting [3]) and in test [1] (setting [4]) were 20% and 35%, respectively.
In the case of `CC(C)[C@H](NC(=O)[C@H](Cc1ccc2ccccc2n1)NC(=O)[C@H](CC(=O)O)NC(=O)OCc1ccccc1)C(=O)N[C@H](/C=C(\Cl)S(C)(=O)=O)CC(=O)O` [Compound 48, Z-Asp-Ala(2′-quinolyl)-Val-Asp-achlorovinyl methylsulfone], the IC50 on Caspase-1 was over 3.33 µM; at Caspase-3 (setting [2]) it was 0.01 µM; on Caspase-3 (read-out: IC50 caspase-3) it was 0.008 to 0.03 µM; at Caspase-5 it was over 3.33 µM; at Caspase-7, 0.4 µM; on Caspase-9 it was 1.2 µM. For the same compound, the half-maximal inhibitory concentration (IC50) in the test with Glo3/7 turned out to be 0.1 µM. Besides, the “effectivity in inhibiting PARP cleavage” value in test [1] (Hela cells) is given as “showing effectivity especially relative to DEVD-fmk”.
`Cc1ccc(S(=O)(=O)N[C@@H](Cc2ccc3ccccc3n2)C(=O)N[C@H](C(=O)N[C@H](/C=C(\Cl)S(C)(=O)=O)CC(=O)O)C(C)C)cc1` [Compound 50]: the IC50 at Caspase-1 is over 3.33 µM; at Caspase-3 (setting [2]), over 3.33 µM; on Caspase-5 it was over 3.33 µM; on Caspase-7, over 3.33 µM; at Caspase-9, over 3.33 µM; with Glo3/7, 40 µM. Also, the inhibition at 50 µM in test [1] (setting [3]) and in test [1] (setting [4]) was 0% in each case.
As for `CC(C)[C@H](NC(=O)[C@H](Cc1ccc2ccccc2n1)NC(=O)[C@H](CC(=O)O)NC(=O)OCc1ccccc1)C(=O)N[C@H](/C=C/S(C)(=O)=O)CC(=O)O` [Compound 55, Z-Asp-Ala(2′-quinolyl)-Val-Aspmethyl vinyl sulfone], the IC50 is over 10 µM on Caspase-1; over 10 µM at Caspase-5; 1.4 µM at Caspase-7; over 3.33 µM at Caspase-9; 0.1 µM in the test on Glo3/7. Besides, the “inhibitory activity for caspase-1” value on Caspase-1 (setting [5]) is reported as “No significant inhibitory activity”. Moreover, the “inhibitory activity for caspase-5” value on Caspase-5 (setting [5]) is “No significant inhibitory activity”. The “inhibitory activity for caspase-9” value on Caspase-9 (setting [5]) is given as “No significant inhibitory activity”. The “effectivity in inhibiting PARP cleavage” value in test [1] (Hela cells) was “showing effectivity especially relative to DEVD-fmk”.
Turning to `CC(C)[C@H](NC(=O)[C@H](Cc1ccc2ccccc2n1)NC(=O)[C@H](CC(=O)O)NC(=O)OCc1ccccc1)C(=O)N[C@H](/C=C/S(=O)(=O)Oc1ccccc1)CC(=O)O` [Compound 65, Z-Asp-Ala(2′-quinolyl)-Val-Aspphenoxy vinyl sulfone], the concentration for half-maximal inhibition (IC50) on Caspase-1 is 1.2 µM; on Caspase-3 (setting [2]), 0.01 µM; on Caspase-5, over 3.33 µM; at Caspase-7, 0.4 µM; at Caspase-9 it was 0.3 µM; with Glo3/7, 0.2 µM.
Consider `CC(C)[C@H](NC(=O)[C@H](Cc1ccc2ccccc2n1)NC(=O)[C@H](CC(=O)OC(C)(C)C)NC(=O)OCc1ccccc1)C(=O)N[C@H](/C=C/S(=O)(=O)N1CCOCC1)CC(=O)OC(C)(C)C` [Compound 66, Z-Asp(β-tert-Butyl)-Ala(2′-quinolyl)-Val-Asp(β-tert-Butyl)morpholine Vinyl Sulfone], for which the IC50 on Caspase-1 was over 3.33 µM; at Caspase-3 (setting [2]), 0.2 µM; at Caspase-5 it was over 3.33 µM; at Caspase-7, over 3.33 µM; on Caspase-9, over 3.33 µM; in the test on Glo3/7 it was 1.4 µM. Moreover, the inhibition at 50 µM in test [1] (setting [4]) came out at 35%.
For the compound `CC(C)[C@H](NC(=O)[C@@H](NC(=O)[C@H](CC(=O)O)NC(=O)OCc1ccccc1)C1Cc2ccccc2C1)C(=O)N[C@H](/C=C/S(=O)(=O)C(C)C)CC(=O)O` [Compound 68, Z-Asp-Indanylglycine-Val-Aspisopropyl Vinyl Sulfone], the 50% inhibitory concentration (IC50) was over 3.33 µM at Caspase-1; 0.2 µM at Caspase-3 (setting [2]); over 3.33 µM at Caspase-5; 1.5 µM on Caspase-7; over 3.33 µM on Caspase-9; 1.1 µM in the test on Glo3/7.
For `CC(C)[C@H](NC(=O)[C@@H](NC(=O)[C@H](CC(=O)O)NC(=O)OCc1ccccc1)c1ccccc1)C(=O)N[C@H](/C=C/S(=O)(=O)c1ccccc1)CC(=O)O` [Compound 69, Z-Asp-Phg-Val-Asp-phenyl Vinylsulfone], the half-maximal inhibitory concentration (IC50) is over 3.33 µM at Caspase-1; 0.1 µM at Caspase-3 (setting [2]); over 10 µM on Caspase-5; 1.8 µM on Caspase-7; over 3.33 µM on Caspase-9; 1.4 µM in the test with Glo3/7. The inhibition at 50 µM in test [1] (setting [3]) came out at 20%; in test [1] (setting [4]), 35%.
For the compound `CC(C)[C@H](NC(=O)C(Cc1ccc2ccccc2n1)NC(=O)[C@H](CC(=O)O)NC(=O)OCc1ccccc1)C(=O)N[C@H](/C=C/S(=O)(=O)c1ccccc1)CC(=O)O` (some centres unmarked) [Compound 70, Z-Asp-(D,L Ala(2′-quinolyl))-Val-Aspphenyl Vinylsulfone], the half-inhibitory concentration (IC50) at Caspase-1 was over 3.33 µM; at Caspase-3 (setting [2]), 0.3 µM; on Caspase-5, over 10 µM; on Caspase-7 it was over 10 µM; at Caspase-9, over 10 µM; in the test on Glo3/7, 20 µM.
`CC(C)[C@H](NC(=O)C(Cc1ccc2ccccc2n1)NC(=O)[C@H](CC(=O)O)NC(=O)OCc1ccccc1)C(=O)N[C@H](/C=C/S(C)(=O)=O)CC(=O)O` (some centres unmarked) [Compound 71, Z-Asp-(D,L Ala(2′-quinolyl))-Val-Aspmethyl Vinylsulfone]: the half-inhibitory concentration (IC50) was over 10 µM on Caspase-1; over 10 µM at Caspase-5; 8.9 µM at Caspase-7; over 10 µM at Caspase-9; 0.3 µM in the test on Glo3/7. Moreover, the inhibition at 50 µM in test [1] (setting [3]) came out at 20%; in test [1] (setting [4]), 35%.
On to `CC(C)[C@H](NC(=O)[C@H](Cc1c[nH]c2ccccc12)NC(=O)[C@H](CC(=O)O)NC(=O)OCc1ccccc1)C(=O)N[C@H](/C=C/S(C)(=O)=O)CC(=O)O` [Compound 88, Z-Asp-Trp-Val-Aspmethyl vinyl sulfone], for which the half-inhibitory concentration (IC50) on Caspase-1 is 0.7 µM; at Caspase-3 (setting [2]), 0.04 µM; on Caspase-3 (read-out: IC50 caspase-3), 0.03 to 0.09 µM; at Caspase-5, over 3.33 µM; at Caspase-7, 1.1 µM; at Caspase-9, over 3.33 µM. Moreover, in the test with Glo3/7, the IC50 is 0.7 µM.
